{
  "source": "patent US12157730B2",
  "about": "“Heteroaryl derivative, method for producing same, and pharmaceutical composition comprising same as effective component” (VORONOI INC., priority 2019, dated 2024)",
  "data": [
    {"target": "T1, Ba/F3 cell EGFR Exon20 ins NPH (Homo sapiens, UniProt P00533, INS773NPH)", "T1 construct": "expressed in transfected cells; host or cells: Ba/F3", "assay": "Ba/F3 cell proliferation suppression, EGFR Exon20 ins NPH", "format": "cell-based", "settings": "GI50 class; Ba/F3 cell line with NPH inserted at Exon20 of EGFR; 72 hours", "outline": "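Cells (3000–5000/well) plated 24 h before compound, 12-point 3-fold dilutions at 0.3 nM to 50 um final; Ba/F3 lines grown with 5 ng/ml IL-3. Viability by CellTiter-Glo luminescence after 72 h, growth ratio vs control, GI50 from curves; triplicate.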", "values": [
      {"compound": "C=CC(=O)Nc1cc(Nc2cc(N3OCC[C@@H]3c3ccc(C)nc3)ncn2)c(OC)cc1N1CCC(N2C[C@H]3C[C@@H]2CO3)CC1", "note": "[Example 227, N-(2-(4-((1R,4R)-2-oxa-5-azabicyclo[2.2.1]heptane-5-yl)piperidine-1-yl)-4-methoxy-5-((6-((R)-3-(6-methylpyridine-3-yl)isoxazolidine-2-yl)pyrimidine-4-yl)amino)phenyl)acrylamide]", "Ba/F3 (NPH) Activity": "B (50 nM ≤ GI50 < 500 nM)"},
      {"compound": "C=CC(=O)Nc1cc(Nc2cc(N3OCC[C@@H]3c3cc(F)cc(Cl)c3)ncn2)c(OC)cc1N1CCC(N2CCN(C3CC3)CC2)CC1", "note": "[Example 163, N-(5-((6-((R)-3-(3-chloro-5-fluorophenyl)isoxazolidine-2-yl)pyrimidine-4-yl)amino)-2-(4-(4-cyclopropylpiperazine-1-yl)piperidine-1-yl)-4-methoxyphenyl) acrylamide]", "Ba/F3 (NPH) Activity": "A (GI50 < 50 nM)"},
      {"compound": "C=CC(=O)Nc1cc(Nc2cc(N3OCC[C@@H]3c3cccc(F)c3F)ncn2)c(OC)cc1N1CCC(N2CCC(F)(F)CC2)CC1", "note": "[compound 341, N-(2-(4,4-difluoro-[1,4'-bipiperidine]-1'-yl)-5-((6-((R)-3-(2,3-difluorophenyl)isoxazolidine-2-yl)pyrimidine-4-yl)amino)-4-methoxyphenyl) acrylamide]", "Ba/F3 (NPH) Activity": "A (GI50 < 50 nM)"},
      {"compound": "C=CC(=O)Nc1cc(Nc2cc(N3OCC[C@@H]3c3cccc(C#N)c3)ncn2)c(OC)cc1N1CCC(N2CCN(C3CC3)C[C@H]2C)CC1", "note": "[Example 131, N-(5-((6-((R)-3-(3-cyanophenyl)isoxazolidine-2-yl)pyrimidine-4-yl)amino)-2-(4-((R)-4-cyclopropyl-2-methylpiperazine-1-yl)piperidine-1-yl)-4-methoxyphenyl) acrylamide]", "Ba/F3 (NPH) Activity": "A (GI50 < 50 nM)"},
      {"compound": "C=CC(=O)Nc1cc(Nc2cc(N3OCC[C@@H]3c3ccc(C)nc3)ncn2)c(OC)cc1N1CCC(N(C)CCOC)CC1", "note": "[Example 229, N-(4-methoxy-2-(4-((2-methoxyethyl)(methyl)amino)piperidine-1-yl)-5-((6-((R)-3-(6-methylpyridine-3-yl)isoxazolidine-2-yl)pyrimidine-4-yl)amino)phenyl)acrylamide]", "Ba/F3 (NPH) Activity": "B (50 nM ≤ GI50 < 500 nM)"},
      {"compound": "C=CC(=O)Nc1cc(Nc2cc(N3OCC[C@@H]3c3c(F)ccc(F)c3Cl)ncn2)c(OC)cc1N1CCC(N2C[C@@H]3C[C@H]2CO3)CC1", "note": "[compound 693, N-(2-(4-((1S,4S)-2-oxa-5-azabicyclo[2.2.1]heptane-5-yl)piperidine-1-yl)-5-((6-((R)-3-(2-chloro-3,6-difluorophenyl)isoxazolidine-2-yl)pyrimidine-4-yl)amino)-4-methoxyphenyl) acrylamide]", "Ba/F3 (NPH) Activity": "A (GI50 < 50 nM)"},
      {"compound": "C=CC(=O)Nc1cc(Nc2cc(N3OCC[C@@H]3c3cc(F)ccc3F)ncn2)c(OC)cc1N1CCC(N2CC3CC2CN3C)CC1", "note": "(stereo partly drawn) [compound 877, N-(5-((6-((R)-3-(2,5-difluorophenyl)isoxazolidine-2-yl)pyrimidine-4-yl)amino)-4-methoxy-2-(4-(5-methyl-2,5-diazabicyclo [2.2.1]heptane-2-yl)piperidine-1-yl)phenyl)acrylamide]", "Ba/F3 (NPH) Activity": "A (GI50 < 50 nM)"},
      {"compound": "C=CC(=O)Nc1cc(Nc2cc(N3OCC[C@@H]3c3cc(F)cc(F)c3)ncn2)c(OC)cc1N1CCC(N2CCO[C@H](C)C2)CC1", "note": "[compound 758, N-(5-((6-((R)-3-(3,5-difluorophenyl)isoxazolidine-2-yl)pyrimidine-4-yl)amino)-4-methoxy-2-(4-((R)-2-methylmorpholino)piperidine-1-yl)phenyl) acrylamide]", "Ba/F3 (NPH) Activity": "B (50 nM ≤ GI50 < 500 nM)"},
      {"compound": "C=CC(=O)Nc1cc(Nc2cc(N3OCC[C@@H]3c3cccc(OC)c3)ncn2)c(OC)cc1N1CC[C@@H](N(C)C)C1", "note": "[compound 776, N-(2-((R)-3-(dimethylamino)pyrolidine-1-yl)-4-methoxy-5-((6-((R)-3-(3-methoxyphenyl)isoxazolidine-2-yl)pyrimidine-4-yl)amino)phenyl)acrylamide]", "Ba/F3 (NPH) Activity": "A (GI50 < 50 nM)"},
      {"compound": "C=CC(=O)Nc1cc(Nc2cc(N3OCC[C@@H]3c3ccc(F)c(Cl)c3)ncn2)c(OC)cc1N1CCC(N2CCN(CC)CC2)CC1", "note": "[Example 263, N-(5-((6-((R)-3-(3-chloro-4-fluorophenyl)isoxazolidine-2-yl)pyrimidine-4-yl)amino)-2-(4-(4-ethylpiperazine-1-yl)piperidine-1-yl)-4-methoxyphenyl) acrylamide]", "Ba/F3 (NPH) Activity": "A (GI50 < 50 nM)"},
      {"compound": "C=CC(=O)Nc1cc(Nc2cc(N3OCC[C@@H]3c3cccc4ccccc34)ncn2)c(OC)cc1N1CCC(N2CCN(C3CC3)CC2)CC1", "note": "[Example 146, N-(2-(4-(4-cyclopropylpiperazine-1-yl)piperidine-1-yl)-4-methoxy-5-((6-((R)-3-(naphthalene-1-yl)isoxazolidine-2-yl)pyrimidine-4-yl)amino)phenyl)acrylamide]", "Ba/F3 (NPH) Activity": "B (50 nM ≤ GI50 < 500 nM)"},
      {"compound": "C=CCN1CCN(C2CCN(c3cc(OC)c(Nc4cc(N5OCC[C@@H]5c5cccc(F)c5F)ncn4)cc3NC(=O)C=C)CC2)CC1", "note": "[Example 209, N-(2-(4-(4-allylpiperazine-1-yl)piperidine-1-yl)-5-((6-((R)-3-(2,3-difluorophenyl)isoxazolidine-2-yl)pyrimidine-4-yl)amino)-4-methoxyphenyl) acrylamide]", "Ba/F3 (NPH) Activity": "A (GI50 < 50 nM)"},
      {"compound": "C=CC(=O)Nc1cc(Nc2cc(N3OCC[C@@H]3c3ccc(F)cc3)ncn2)c(OC)cc1N1CCC(N2C[C@H]3CCN(C)[C@H]3C2)CC1", "note": "[compound 541, N-(5-((6-((R)-3-(4-fluorophenyl)isoxazolidine-2-yl)pyrimidine-4-yl)amino)-4-methoxy-2-(4-((3aR,6aR)-1-methylhexahydropyrrolo [3,4-b]pyrrole-5(1H)-yl)piperidine-1-yl)phenyl)acrylamide]", "Ba/F3 (NPH) Activity": "A (GI50 < 50 nM)"},
      {"compound": "C=CC(=O)Nc1cc(Nc2cc(N3OCC[C@@H]3c3ccc(Cl)c(F)c3)ncn2)c(OC)cc1N1CCC(N2CCN(C3CCC3)CC2)CC1", "note": "[Example 71, N-(5-((6-((R)-3-(4-chloro-3-fluorophenyl)isoxazolidine-2-yl)pyrimidine-4-yl)amino)-2-(4-(4-cyclobutylpiperazine-1-yl)piperidine-1-yl)-4-methoxyphenyl) acrylamide]", "Ba/F3 (NPH) Activity": "A (GI50 < 50 nM)"},
      {"compound": "C=CC(=O)Nc1cc(Nc2cc(N3OCC[C@@H]3c3cc(F)cc(F)c3)ncn2)c(OC)cc1N1CCC(N2C[C@H](C)O[C@@H](C)C2)CC1", "note": "[compound 752, N-(5-((6-((R)-3-(3,5-difluorophenyl)isoxazolidine-2-yl)pyrimidine-4-yl)amino)-2-(4-((2S,6S)-2,6-dimethylmorpholino)piperidine-1-yl)-4-methoxyphenyl) acrylamide]", "Ba/F3 (NPH) Activity": "A (GI50 < 50 nM)"},
      {"compound": "C=CC(=O)Nc1cc(Nc2cc(N3OCC[C@@H]3c3ccc(F)c(Cl)c3)ncn2)c(OC)cc1N1CCOCC1", "note": "[compound 824, N-(5-((6-((R)-3-(3-chloro-4-fluorophenyl)isoxazolidine-2-yl)pyrimidine-4-yl)amino)-4-methoxy-2-morpholinophenyl) acrylamide]", "Ba/F3 (NPH) Activity": "A (GI50 < 50 nM)"},
      {"compound": "C=CC(=O)Nc1cc(Nc2cc(N3OCC[C@H]3c3c(F)cccc3F)ncn2)c(OC)cc1N(C)CCN(C)C", "note": "[compound 306, N-(5-((6-((S)-3-(2,6-difluorophenyl)isoxazolidine-2-yl)pyrimidine-4-yl)amino)-2-((2-(dimethylamino)ethyl)(methyl)amino)-4-methoxyphenyl) acrylamide]", "Ba/F3 (NPH) Activity": "B (50 nM ≤ GI50 < 500 nM)"},
      {"compound": "C=CC(=O)Nc1cc(Nc2cc(N3OCC[C@@H]3Cc3cccc(Cl)c3Cl)ncn2)c(OC)cc1N1CCC(N2C[C@H]3C[C@@H]2CO3)CC1", "note": "[compound 1014, N-(2-(4-((1R,4R)-2-oxa-5-azabicyclo [2.2.1]heptane-5-yl)piperidine-1-yl)-5-((6-((S)-3-(2,3-dichlorobenzyl)isoxazolidine-2-yl)pyrimidine-4-yl)amino)-4-methoxyphenyl) acrylamide]", "Ba/F3 (NPH) Activity": "A (GI50 < 50 nM)"},
      {"compound": "C=CC(=O)Nc1cc(Nc2cc(N3OCC[C@@H]3c3ccc(Cl)c(Cl)c3)ncn2)c(OC)cc1N1CCN(C(C)=O)CC1", "note": "[compound 675, N-(2-(4-acetylpiperazine-1-yl)-5-((6-((R)-3-(3,4-dichlorophenyl)isoxazolidine-2-yl)pyrimidine-4-yl)amino)-4-methoxyphenyl) acrylamide]", "Ba/F3 (NPH) Activity": "A (GI50 < 50 nM)"},
      {"compound": "C=CC(=O)Nc1cc(Nc2cc(N3OCC[C@@H]3c3cccc4ccccc34)ncn2)c(OC)cc1N1CCC(N2CCN(C3CC3)[C@H](C)C2)CC1", "note": "[Example 155, N-(2-(4-((R)-4-cyclopropyl-3-methylpiperazine-1-yl)piperidine-1-yl)-4-methoxy-5-((6-((R)-3-(naphthalene-1-yl)isoxazolidine-2-yl)pyrimidine-4-yl)amino)phenyl)acrylamide]", "Ba/F3 (NPH) Activity": "A (GI50 < 50 nM)"},
      {"compound": "C=CC(=O)Nc1cc(Nc2cc(N3OCC[C@@H]3c3cccc(F)c3F)ncn2)c(OC)cc1N1CCN(C)C[C@H]1C", "note": "[compound 885, N-(5-((6-((R)-3-(2,3-difluorophenyl)isoxazolidine-2-yl)pyrimidine-4-yl)amino)-2-((R)-2,4-dimethylpiperazine-1-yl)-4-methoxyphenyl) acrylamide]", "Ba/F3 (NPH) Activity": "A (GI50 < 50 nM)"},
      {"compound": "C=CC(=O)Nc1cc(Nc2cc(N3OCC[C@@H]3c3ccc(F)cc3F)ncn2)c(OC)cc1N1CCN(C)CC1", "note": "[compound 326, N-(5-((6-((R)-3-(2,4-difluorophenyl)isoxazolidine-2-yl)pyrimidine-4-yl)amino)-4-methoxy-2-(4-methylpiperazine-1-yl)phenyl)acrylamide]", "Ba/F3 (NPH) Activity": "A (GI50 < 50 nM)"}
    ]}
  ]
}
